{"source": "patent US10526581B2", "about": "“Modulation of cardiac stem-progenitor cell differentiation, assays and uses thereof” (priority 2013, dated 2020)", "key": {"[1]": {"test_system": "mouse heart", "assay": "ISO injury in CM-recombined MerCreMer-ZEG and MerCreMer:RYP mice (lineage tracing of new CMs)", "format": "in vivo", "details": "28 days after ISO", "text": "BrdU labeling and Ki67 expression by itself cannot establish whether the new CMs are generated by the reported division of pre-existing adult CMs or by the activation and ensuing differentiation of a stem-progenitor cell compartment. To specifically address this issue, we traced the cell lineage of the new CMs. We generated double-transgenic mice (MerCreMer-ZEG) (Hsieh et al., 2007; Loffredo et al., 2011) in which, upon tamoxifen administration, β-galactosidase (β-Gal) is replaced by enhanced green fluorescent protein (GFP) exclusively in cardiac cells which have already activated the Myh6 gene (and, therefore, the transgene carrying the cre recombinase gene) which are either post-mitotic CMs or amplifying cells already committed to the CM lineage (i.e., immature myocytes/myocyte precursors).\nIn tamoxifen-naïve MerCreMer-ZEG mice, 99±0.2% of the CMs express β-Gal and are negative for GFP (the leakage of the Myh6-Cre construct in these animals is ˜0.2%). Tamoxifen correctly switched β-Gal to GFP in CMs (FIG. 15A-C). […] In this setting, if new CMs (BrdU^pos) originated from division of pre-existing CMs they should be more GFP^pos and the ratio between GFP^pos and β-Gal^pos CMs should remain unchanged at ˜80/20. If instead, the new CMs originate from non-CM cells, they should be β-Gal^pos and produce a “dilution” of GFP^pos CMs with a decrease of the GFP^pos/β-Gal^pos CM ratio (FIG. 15A).\nIn mice, ISO injection caused the same type of myocardial damage and LV dysfunction shown in rats, resulting in c-kit^poseCSC activation, CM regeneration and recovery of cardiac function (FIG. 22). […] These numbers match the CM loss produced by ISO administration (FIG. 22). In contrast, we detected very few newly generated, BrdU^posβ-Gal^pos, CMs (0.15±0.05%) in saline-treated CTRL mice (FIG. 15E). […] This discrepancy might be due to the different injury models used. In contrast to coronary ligation, although ISO kills a large number of CMs, because it leaves a patent coronary circulation the eCSCs are spared and provides a more physiologic test for the endogenous reparative potential of the adult heart (Ellison et al., 2007b). Furthermore, during the two-week administration of tamoxifen for Cre induction it would be expected that some eCSCs have committed to the myogenic lineage and activated the Myh6 gene with recombination of the transgene and generation of […], as reported by Dong et al. (2012).\nFinally, we dissociated to single cells CMs from the hearts of double transgenic MerCreMer:RYP mice obtained by crossing MerCreMer with R26R-EYFP (RYP) mice (Qian et al., 2012), in which the CMs were labeled with the enhanced yellow fluorescent protein (EYFP) upon tamoxifen injection. […]"}, "[2]": {"test_system": "mouse heart", "assay": "ISO injury in Lenti-c-kit/Cre recombined RYP mice (c-kit^pos eCSC fate map)", "format": "in vivo", "details": "28 days after ISO"}, "[3]": {"test_system": "adult rat myocardium", "details": "single high dose of ISO; cited from earlier work"}}}
{"smiles": "CC(C)NCC(O)c1ccc(O)c(O)c1", "note": "(stereo not shown) [ISO, isoproterenol]", "values": [{"measurement": "BrdU^pos CMs", "setting": "[1]; MerCreMer/ZEG mice", "result": "9±2", "unit": "%"}, {"measurement": "GFP^pos CMs", "setting": "[1]; MerCreMer/ZEG mice", "result": "73.5±3.5", "unit": "%"}, {"measurement": "β-Gal^pos CMs", "setting": "[1]; MerCreMer/ZEG mice", "result": "26.5±2", "unit": "%"}, {"measurement": "YFP-marked endogenous CMs", "setting": "[1]; MerCreMer:RYP mice, apex (and sub-endocardium)", "result": "~72", "unit": "%"}, {"measurement": "newly-formed (BrdU^pos) CMs", "setting": "[2]", "result": "9.5±2", "unit": "%"}, {"measurement": "YFP^pos cells in the unfixed CM preparation (FACS)", "setting": "[2]; LV apex", "result": "8.3±1", "unit": "%"}, {"measurement": "EYFP positive CMs, % of total BrdU^pos CMs", "setting": "[2]; LV", "result": "43±3", "unit": "%"}, {"measurement": "EYFP positive CMs, % of total BrdU^pos CMs", "setting": "[2]; apex", "result": "74±7", "unit": "%"}, {"measurement": "YFP^pos cells in the unfixed CM preparation (FACS)", "setting": "[2]; total LV", "result": "2.9±0.5", "unit": "%"}, {"measurement": "LV CMs killed", "setting": "[3]", "result": "8-10%"}]}
